Assay results published in ChEMBL document CHEMBL4616690, “Assembling Pharma Resources to Tackle Diseases of Underserved Populations” (ACS Med Chem Lett, 2020).

How the values were obtained:
Wolbachia [1] = test: Antibacterial activity against Wolbachia infected in insect cells; assay type: functional, organism-based
Wolbachia [2] = test: Potency index, ratio IC50 for TylA to IC50 for compound for antibacterial activity against Wolbachia infected in insect cells; assay type: functional
Wolbachia [3] = test: Potency index, ratio IC50 for doxycycline to IC50 for compound for antibacterial activity against Wolbachia infected in insect cells; assay type: functional

`CC[C@H]1OC(=O)C[C@@H](O)[C@H](C)[C@@H](O[C@@H]2O[C@H](C)[C@@H](O[C@H]3C[C@@](C)(O)[C@@H](OCc4ccc(F)cc4)[C@H](C)O3)[C@H](N(C)C)[C@H]2O)[C@@H](CC=O)C[C@@H](C)C(=O)/C=C/C(C)=C/[C@@H]1CO[C@@H]1O[C@H](C)[C@@H](O)[C@@H](OC)[C@H]1OC` [FLUBENTYLOSIN] was tested, and the IC50 (Wolbachia [1]) was 0.02 nM, the “Ratio IC50” value (Wolbachia [2]) was over 1000 and the “Ratio IC50” value (Wolbachia [3]) was over 1000.
